{"source": "patent US6355799B1", "about": "“Substituted benzene compounds, process for their preparation, and herbicidal and defoliant compositions containing them” (ISK Americas Incorporated, priority 1997, dated 2002)", "assay_type_in_all_cases": "in vivo", "key": {"[1]": {"system": "upland rice (Oryza sp., var. Tebonnet, RICE)", "assay": "Post-emerge test, crop safety", "details": "phytotoxicity rating 0-100 (0 no damage, 100 complete death), 14 days after application", "method_in_brief": "(§1)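 Visual ratings on a 0-100 scale (0 no damage, 100 all plants dead) were taken at 14 days after treatment. Rates of 15-1000 g ai/ha in acetone, 187 l/ha, were sprayed onto soil one day after planting (pre-emerge) or onto 2-3 leaf plants with 0.25% v/v surfactant (post-emerge).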"}, "[2]": {"system": "field corn (Zea mays L., var. Dekalb 535, CORN)", "assay": "Post-emerge test, crop safety", "details": "phytotoxicity rating 0-100 (0 no damage, 100 complete death), 14 days after application", "method_in_brief": "as §1"}, "[3]": {"system": "sicklepod (Cassia obtusifolia, CASOB)", "assay": "Pre-emerge test, greenhouse herbicide activity screening", "details": "pre-emerge, rated 14 days after application, 0 = no damage, 100 = complete death", "method_in_brief": "as §1"}, "[4]": {"system": "johnsongrass (Sorghum halepense, SORHA)", "assay": "Pre-emerge test, greenhouse herbicide activity screening", "details": "pre-emerge, rated 14 days after application, 0 = no damage, 100 = complete death", "method_in_brief": "as §1"}, "[5]": {"system": "barnyardgrass (Echinochloa crus-galli, ECHCG)", "assay": "Pre-emerge test, greenhouse herbicide activity screening", "details": "pre-emerge, rated 14 days after application, 0 = no damage, 100 = complete death", "method_in_brief": "as §1"}, "[6]": {"system": "lambsquarters (Chenopodium album, CHEAL)", "assay": "Pre-emerge test, greenhouse herbicide activity screening", "details": "pre-emerge, rated 14 days after application, 0 = no damage, 100 = complete death", "method_in_brief": "as §1"}, "[7]": {"system": "common ragweed (Ambrosia artemisizfolia L., AMBEL)", "assay": "Pre-emerge test, greenhouse herbicide activity screening", "details": "pre-emerge, rated 14 days after application, 0 = no damage, 100 = complete death", "method_in_brief": "as §1"}, "[8]": {"system": "velvetleaf (Abutilon theophrasti, ABUTH)", "assay": "Pre-emerge test, greenhouse herbicide activity screening", "details": "pre-emerge, rated 14 days after application, 0 = no damage, 100 = complete death", "method_in_brief": "as §1"}, "[9]": {"system": "ivyleaf morningglory (Ipomoea hederacea, IPOHE)", "assay": "Pre-emerge test, greenhouse herbicide activity screening", "details": "pre-emerge, rated 14 days after application, 0 = no damage, 100 = complete death", "method_in_brief": "as §1"}, "[10]": {"system": "green foxtail (Setaria viridis, SETVI)", "assay": "Pre-emerge test, greenhouse herbicide activity screening", "details": "pre-emerge, rated 14 days after application, 0 = no damage, 100 = complete death", "method_in_brief": "as §1"}, "[11]": {"system": "large crabgrass (Digitaria sanguinalis, DIGSA)", "assay": "Pre-emerge test, greenhouse herbicide activity screening", "details": "pre-emerge, rated 14 days after application, 0 = no damage, 100 = complete death", "method_in_brief": "as §1"}, "[12]": {"system": "redroot pigweed (Amaranthus retroflexus, AMARE)", "assay": "Pre-emerge test, greenhouse herbicide activity screening", "details": "pre-emerge, rated 14 days after application, 0 = no damage, 100 = complete death", "method_in_brief": "(§2)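 Compounds in acetone were track-sprayed at 187 l/ha, 15–1000 g ai/ha, onto sandy loam pots. Pre-emerge seeds were sown one day before spraying, with surface watering afterwards. Post-emerge plants were at the 2–3 leaf stage and sprayed with 0.25% v/v non-ionic surfactant. Injury was rated 0–100 at 14 days.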"}, "[13]": {"system": "upland rice (Oryza sp., var. Tebonnet, RICE)", "assay": "Pre-emerge test, crop safety", "details": "pre-emerge, rated 14 days after application, 0 = no damage, 100 = complete death", "method_in_brief": "as §2"}, "[14]": {"system": "field corn (Zea mays L., var. Dekalb 535, CORN)", "assay": "Pre-emerge test, crop safety", "details": "pre-emerge, rated 14 days after application, 0 = no damage, 100 = complete death", "method_in_brief": "as §2"}, "[15]": {"system": "sicklepod (Cassia obtusifolia, CASOB)", "assay": "Post-emerge test, greenhouse herbicide activity screening", "details": "phytotoxicity rating 0-100 (0 no damage, 100 complete death), 14 days after application", "method_in_brief": "(§3)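 Sandy loam pots; pre-emerge: sown 1 d pre-spray, surface-watered after, then bottom-watered. Post-emerge: sown 8–21 d before, 2–3 leaf stage, + 0.25% v/v NIS, bottom-watered. Acetone, 187 l/ha track spray, 15–1000 g ai/ha. 0–100 injury score, day 14.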"}, "[16]": {"system": "johnsongrass (Sorghum halepense, SORHA)", "assay": "Post-emerge test, greenhouse herbicide activity screening", "details": "phytotoxicity rating 0-100 (0 no damage, 100 complete death), 14 days after application", "method_in_brief": "as §3"}, "[17]": {"system": "barnyardgrass (Echinochloa crus-galli, ECHCG)", "assay": "Post-emerge test, greenhouse herbicide activity screening", "details": "phytotoxicity rating 0-100 (0 no damage, 100 complete death), 14 days after application", "method_in_brief": "as §3"}, "[18]": {"system": "lambsquarters (Chenopodium album, CHEAL)", "assay": "Post-emerge test, greenhouse herbicide activity screening", "details": "phytotoxicity rating 0-100 (0 no damage, 100 complete death), 14 days after application", "method_in_brief": "as §3"}, "[19]": {"system": "redroot pigweed (Amaranthus retroflexus, AMARE)", "assay": "Post-emerge test, greenhouse herbicide activity screening", "details": "phytotoxicity rating 0-100 (0 no damage, 100 complete death), 14 days after application", "method_in_brief": "as §3"}, "[20]": {"system": "common ragweed (Ambrosia artemisizfolia L., AMBEL)", "assay": "Post-emerge test, greenhouse herbicide activity screening", "details": "phytotoxicity rating 0-100 (0 no damage, 100 complete death), 14 days after application", "method_in_brief": "as §3"}, "[21]": {"system": "velvetleaf (Abutilon theophrasti, ABUTH)", "assay": "Post-emerge test, greenhouse herbicide activity screening", "details": "phytotoxicity rating 0-100 (0 no damage, 100 complete death), 14 days after application", "method_in_brief": "as §3"}, "[22]": {"system": "ivyleaf morningglory (Ipomoea hederacea, IPOHE)", "assay": "Post-emerge test, greenhouse herbicide activity screening", "details": "phytotoxicity rating 0-100 (0 no damage, 100 complete death), 14 days after application", "method_in_brief": "as §3"}, "[23]": {"system": "green foxtail (Setaria viridis, SETVI)", "assay": "Post-emerge test, greenhouse herbicide activity screening", "details": "phytotoxicity rating 0-100 (0 no damage, 100 complete death), 14 days after application", "method_in_brief": "as §3"}, "[24]": {"system": "large crabgrass (Digitaria sanguinalis, DIGSA)", "assay": "Post-emerge test, greenhouse herbicide activity screening", "details": "phytotoxicity rating 0-100 (0 no damage, 100 complete death), 14 days after application", "method_in_brief": "as §3"}}}
{"smiles": "COc1c(Cl)cc(F)c(-n2c(=O)cc(C(F)(F)F)n(C)c2=O)c1NC(=O)c1ccc(C)cc1", "note": "[2-24]", "values": [{"measurement": "Post-emerge Herbicidal Activity RICE (crop damage)", "setting": "[1]; 63 g ai/ha", "result": 70}, {"measurement": "Post-emerge Herbicidal Activity RICE (crop damage)", "setting": "[1]; 250 g ai/ha", "result": 90}, {"measurement": "Post-emerge Herbicidal Activity CORN (crop damage)", "setting": "[2]; 63 g ai/ha", "result": 70}, {"measurement": "Post-emerge Herbicidal Activity CORN (crop damage)", "setting": "[2]; 250 g ai/ha", "result": 95}, {"measurement": "Pre-emerge Herbicidal Activity CASOB (phytotoxicity rating, scale 0-100)", "setting": "[3]; 63 g ai/ha", "result": 90}, {"measurement": "Pre-emerge Herbicidal Activity CASOB (phytotoxicity rating, scale 0-100)", "setting": "[3]; 250 g ai/ha", "result": 100}, {"measurement": "Pre-emerge Herbicidal Activity SORHA (phytotoxicity rating, scale 0-100)", "setting": "[4]; 63 g ai/ha", "result": 95}, {"measurement": "Pre-emerge Herbicidal Activity SORHA (phytotoxicity rating, scale 0-100)", "setting": "[4]; 250 g ai/ha", "result": 100}, {"measurement": "Pre-emerge Herbicidal Activity ECHCG (phytotoxicity rating, scale 0-100)", "setting": "[5]; 63 g ai/ha", "result": 95}, {"measurement": "Pre-emerge Herbicidal Activity ECHCG (phytotoxicity rating, scale 0-100)", "setting": "[5]; 250 g ai/ha", "result": 100}, {"measurement": "Pre-emerge Herbicidal Activity CHEAL (phytotoxicity rating, scale 0-100)", "setting": "[6]; 63 g ai/ha", "result": 100}, {"measurement": "Pre-emerge Herbicidal Activity CHEAL (phytotoxicity rating, scale 0-100)", "setting": "[6]; 250 g ai/ha", "result": 100}, {"measurement": "Pre-emerge Herbicidal Activity AMBEL (phytotoxicity rating, scale 0-100)", "setting": "[7]; 63 g ai/ha", "result": 100}, {"measurement": "Pre-emerge Herbicidal Activity AMBEL (phytotoxicity rating, scale 0-100)", "setting": "[7]; 250 g ai/ha", "result": 100}, {"measurement": "Pre-emerge Herbicidal Activity ABUTH (phytotoxicity rating, scale 0-100)", "setting": "[8]; 63 g ai/ha", "result": 100}, {"measurement": "Pre-emerge Herbicidal Activity ABUTH (phytotoxicity rating, scale 0-100)", "setting": "[8]; 250 g ai/ha", "result": 100}, {"measurement": "Pre-emerge Herbicidal Activity IPOHE (phytotoxicity rating, scale 0-100)", "setting": "[9]; 63 g ai/ha", "result": 100}, {"measurement": "Pre-emerge Herbicidal Activity IPOHE (phytotoxicity rating, scale 0-100)", "setting": "[9]; 250 g ai/ha", "result": 100}, {"measurement": "Pre-emerge Herbicidal Activity SETVI (phytotoxicity rating, scale 0-100)", "setting": "[10]; 63 g ai/ha", "result": 100}, {"measurement": "Pre-emerge Herbicidal Activity SETVI (phytotoxicity rating, scale 0-100)", "setting": "[10]; 250 g ai/ha", "result": 100}, {"measurement": "Pre-emerge Herbicidal Activity DIGSA (phytotoxicity rating, scale 0-100)", "setting": "[11]; 63 g ai/ha", "result": 100}, {"measurement": "Pre-emerge Herbicidal Activity DIGSA (phytotoxicity rating, scale 0-100)", "setting": "[11]; 250 g ai/ha", "result": 100}, {"measurement": "Pre-emerge Herbicidal Activity AMARE (phytotoxicity rating, scale 0-100)", "setting": "[12]; 63 g ai/ha", "result": 100}, {"measurement": "Pre-emerge Herbicidal Activity AMARE (phytotoxicity rating, scale 0-100)", "setting": "[12]; 250 g ai/ha", "result": 100}, {"measurement": "Pre-emerge crop damage RICE (phytotoxicity rating, scale 0-100)", "setting": "[13]; 63 g ai/ha", "result": 90}, {"measurement": "Pre-emerge crop damage RICE (phytotoxicity rating, scale 0-100)", "setting": "[13]; 250 g ai/ha", "result": 99}, {"measurement": "Pre-emerge crop damage CORN (phytotoxicity rating, scale 0-100)", "setting": "[14]; 63 g ai/ha", "result": 95}, {"measurement": "Pre-emerge crop damage CORN (phytotoxicity rating, scale 0-100)", "setting": "[14]; 250 g ai/ha", "result": 98}, {"measurement": "Post-emerge Herbicidal Activity CASOB", "setting": "[15]; 63 g ai/ha", "result": 100}, {"measurement": "Post-emerge Herbicidal Activity CASOB", "setting": "[15]; 250 g ai/ha", "result": 100}, {"measurement": "Post-emerge Herbicidal Activity SORHA", "setting": "[16]; 63 g ai/ha", "result": 60}, {"measurement": "Post-emerge Herbicidal Activity SORHA", "setting": "[16]; 250 g ai/ha", "result": 90}, {"measurement": "Post-emerge Herbicidal Activity ECHCG", "setting": "[17]; 63 g ai/ha", "result": 70}, {"measurement": "Post-emerge Herbicidal Activity ECHCG", "setting": "[17]; 250 g ai/ha", "result": 95}, {"measurement": "Post-emerge Herbicidal Activity CHEAL", "setting": "[18]; 63 g ai/ha", "result": 99}, {"measurement": "Post-emerge Herbicidal Activity CHEAL", "setting": "[18]; 250 g ai/ha", "result": 100}, {"measurement": "Post-emerge Herbicidal Activity AMARE", "setting": "[19]; 63 g ai/ha", "result": 100}, {"measurement": "Post-emerge Herbicidal Activity AMARE", "setting": "[19]; 250 g ai/ha", "result": 100}, {"measurement": "Post-emerge Herbicidal Activity AMBEL", "setting": "[20]; 63 g ai/ha", "result": 100}, {"measurement": "Post-emerge Herbicidal Activity AMBEL", "setting": "[20]; 250 g ai/ha", "result": 100}, {"measurement": "Post-emerge Herbicidal Activity ABUTH", "setting": "[21]; 63 g ai/ha", "result": 100}, {"measurement": "Post-emerge Herbicidal Activity ABUTH", "setting": "[21]; 250 g ai/ha", "result": 100}, {"measurement": "Post-emerge Herbicidal Activity IPOHE", "setting": "[22]; 63 g ai/ha", "result": 100}, {"measurement": "Post-emerge Herbicidal Activity IPOHE", "setting": "[22]; 250 g ai/ha", "result": 100}, {"measurement": "Post-emerge Herbicidal Activity SETVI", "setting": "[23]; 63 g ai/ha", "result": 20}, {"measurement": "Post-emerge Herbicidal Activity SETVI", "setting": "[23]; 250 g ai/ha", "result": 70}, {"measurement": "Post-emerge Herbicidal Activity DIGSA", "setting": "[24]; 63 g ai/ha", "result": 10}, {"measurement": "Post-emerge Herbicidal Activity DIGSA", "setting": "[24]; 250 g ai/ha", "result": 50}]}
